Where “and” joins values, the source holds several entries; their conditions need not be identical. Equal values may be shown once. Entries after “also recorded” stand apart in the source; their conditions may differ.
Experiments:
[1] = system: rats exposed to hyperbaric oxygen (5 ATA O2); assay: CNS oxygen toxicity: latency to seizure (EEG) in rats in hyperbaric oxygen; assay type: in vivo, rat; conditions: for effect on latency to seizure / CNS-OT (words) / increase in latency to seizure (LS) compared to control: rats; for effect on latency to seizure / CNS-OT (words): 5 ATA O2, ~3 ml (~10 g/kg) gavage 30 min before HBO2; for increase in latency to seizure (LS) compared to control: 5 ATA O2, ~10 g/kg intragastric 30 min before dive, control water
Excerpt: Hyperbaric Chamber HBO2 system consisted of two main elements: 1) a plexiglass chamber (˜3 liter capacity, Diamond Box, Buxco, Electronics Inc., model PLY3114), that housed the rat during the experiment, and 2) a hyperbaric chamber (Reimers System Inc.—7.8 ATA MWP), that contained the plexiglass chamber and functioned as the pressure vessel. Both chambers were connected to an air compressor (oil-less rotary scroll compressor—model DK6086, Powerex).
During each experiment (hyperbaric hyperoxia), both the main chamber and the animal chamber were filled with air (dive profile). Rats were placed into the plexiglass chamber and allowed ten minutes to acclimate, at which time the plexiglass chamber was flushed with 100% 02. The animal was then allowed 15 minutes to acclimate before both chambers were compressed to 5 ATA (58.8 PSIG) at a rate of 0.7 ATA/min. The outer chamber was pressurized using air (capacity ˜205 liters) to minimize the risk of an electrical-induced fire. Each experiment was visually monitored via a live camera. LS was calculated from the moment at which the internal and the external chambers reached 5 ATA until the onset of convulsions, identified as high-amplitude, high frequency spikes lasting 10 to 30 sec, followed by polyspikes and wave formation concurrent with tonic-clonic motions of forelimbs and head. After the onset of seizures, the plexiglass chamber was flushed with air to quickly terminate seizure, and both chambers decompressed to sea level. Decompression rate was 1 ATA/min. Rats were then allowed a 15 min recovery period in air at 1 ATA before being removed from the chamber.
The radiotelemetry system consisted of an implantable 4ET radio-transmitter able to amplify and broadcast signals via a receiver (DSI PhysioTel, model RPC-2) connected to an acquisition interface unit (ACQ 7700 Ponemah) via electrical penetrations in the wall of the hyperbaric chamber. The acquisition interface unit was connected to a computer for real time data collection and storage. The same acquisition unit also recorded chamber pressure and temperature, which were measured, respectively, by […] directly connected to the acquisition system via BNC (Bayonet Neill-Concelman) cables.
Anticonvulsant effect of supplemental ketones was tested in rats exposed to hyperbaric oxygen (5 ATA O2). The effects of ketone esters (KEs) in preventing CNS-OT in rats were assessed before, during and after HBO2 exposure by measuring various parameters.
Adult male Sprague-Dawley rats (n=60) rats (300-450 grams; 3 to 6 month old) were obtained from Harlan, anesthetized in 3-5% isoflurane (in 02) and implanted with a 4ET radio-transmitter (Data Sciences International, DSI) using sterile surgical technique. The rat chamber was ventilated with pure O2 while the hyperbaric chamber, containing the radio-receiver (DSI), was pressurized in parallel with air to 5 atmospheres absolute (ATA). One pair of leads (positive and negative poles) was implanted in the costal diaphragm at the junction with the abdominal wall for diaphragmatic electromyogram (dEMG) signals, one pair of electrodes was inserted in the pectoral muscle to acquire electrocardiogram (ECG) data, and two pairs of wires were embedded in the skull between Bregma and Lambda, with one lead on either side of midline for each pair (EEG recordings). The EMG wires were not inserted into crural diaphragmatic muscle because of the high risk of pneumothorax due to the thinness of the muscle (419 to 630 μm). 4ET radio-transmitters also monitored core body temperature and physical activity. Rats were weighed immediately before surgery and subsequently once every 7 days, just prior to the weekly exposures to HBO2. After surgery, every animal recovered for ≧1 week. The rats were food (not water) deprived for 18 hours prior to the start of the experiment.
In each case animals were gavaged about 30 minutes prior to diving. […]

[2] = Blood ketones and glucose after oral gavage in rats; assay type: in vivo, rat; conditions: for blood BHB level (words) / blood AcAc level / blood acetone level / effect on blood glucose: ~10 g/kg gavage; for blood BHB level (words): vs control water; for blood acetone level: 60 minutes; for effect on blood glucose: over 4 hrs, relative to water; for duration of elevation of blood ketones: single oral/intragastric administration
Protocol: Whole blood samples (10 μl) were acquired for analysis of glucose and BHB utilizing a commercially available glucose/ketone monitoring system (Nova Max® Plus) at time 0, 30, 60, 120, 180 and 240 min. In addition, heparinized blood samples (200 μl) were collected into Eppendorf tubes at time 0, 30, 60, 120, 180 and 240 min. Samples were processed for the detection and quantification of BHB, AcAc, and acetone. Briefly, samples were chilled on ice for 30 s, centrifuged in a micro-centrifuge (13,000 G) for 3-5 min and plasma (>100 μl), treated with reducing reagent of cold 0.2M sodium borodeuteride (NaBD4; Sigma, 205591, CAS 15681-89-7) dissolved in 0.1M NaOH (8.4 mg NaBD4 in 1 ml of 0.1M NaOH) and then immediately frozen on dry ice before storing at −80° C. Acetone was analyzed at the 60 minute time point, which was the predicted peak of blood AcAc levels (Desrochers et al. 1995). 300 μl of whole blood were collected in addition to the above collections, stabilized with cold 0.2M NaBD4, and then immediately frozen on dry ice. Samples were stored at −80° C. until analyzed for ketones. Internal standards of [^2H6]BHB or [^2H8]isopropanol were added to the treated plasma or blood samples (50 μl or 15 μl) and the BHB, AcAc (as M+1 of BHB) or acetone (as 2-propanol) metabolites were analyzed by gas chromatography-mass spectrometry (GC-MS) using an Agilent 5973 mass spectrometer, linked to a 6890 gas chromatograph equipped with an autosampler. Briefly, GC-MS conditions were either EI or CI mode (electron or chemical ionization mode); the samples were detected by selected ion monitoring as the BHB- and AcAc-trimethylsilyl derivatives (EI) or the derivative of acetone-pentafluorobenzoyl (CI).
KE and BD. […] Blood was collected and processed as described in the previous example.
Ketone measurements were taken at 30, 60, 120, 180 and 240 minutes. Blood plasma was treated with sodium borodeuteride (NaB2H4) to stabilize ketone concentration and then assayed by GC-MS. The rapid rise relating to blood ketones from BD-AcAc2 is due primarily from rapid desterfication in blood and tissues.

[3] = rats; for decrease of blood pH compared to control after about 30 minutes / decrease of blood pH compared to control after about one hour: control pH ~7.5, mean
[4] = Acute ketosis with supplementation in healthy VM/Dk mice (blood glucose, blood βHB, urine AcAc after feeding); assay type: in vivo, mouse; conditions: for time after feeding to significant βHB elevation: after 8 hour fast; for ketone bodies elevated, βHB and AcAc: blood βHB and urine AcAc; for time for which blood glucose was significantly lowered: standard chow with ketone supplementation after 8 hour fast
Protocol: FIG. 34(A)-(C) are graphs showing effect of ketone supplementation on blood glucose, blood βHB, urine AcAc, and body weight in mice. (A-C) blood glucose; (B) blood levels of ketones; and (C) urine AcAc of healthy VM/Dk mice 0-12 hours after feeding following 8 hour fast. […] Error bars represent ±SEM.

VM-M3 metastatic cancer = assay: Survival time in VM-M3 mouse model of metastatic cancer; assay type: in vivo; conditions: for increase in mean survival time: Example 5, compared to controls; for % increase in survival time: Example 5, vs control (SD)
VM-M3/Fluc tumors = assay: Tumor bioluminescence in VM-M3/Fluc mice; assay type: in vivo, mouse; conditions: for tumor growth / bioluminescence: VM-M3 mice vs controls; for whole body tumor bioluminescence (ROI), representative animal: day 21 after tumor cell inoculation
[5] = Blood glucose, blood βHB and body weight of VM-M3 survival study mice
[6] = single oral administration ~10 g/kg

**Q.** For `CC(=O)CC(=O)OCCC(C)O` (stereo not drawn) [BD-AcAc, R,S-1,3-butanediol acetoacetate monoester], which “latency time to seizure, individual rat (EEG)” value ([1]; 5 ATA O2 (60 PSI), same rat 8 minutes without ketone ester) is on record?
**A.** 110 min

**Q.** And the “effect on latency to seizure / CNS-OT (words)” value [1]?
**A.** significantly increased the latency time to seizure

**Q.** What about the “effect on latency to seizure / CNS-OT (words)” value ([1]; listed as 1,3-BD AcAc monoester) of the same molecule?
**A.** delays CNS-OT

**Q.** And the “increase in latency to seizure (LS) compared to control” value (from here on “increase in latency to seizure (LS)”) [1]?
**A.** 285%

**Q.** With “(R)-1,3-butanediol ester [BHB ester, reference compound]” as the molecule, how does the “effect on latency to seizure / CNS-OT (words)” value ([1]; listed as 1,3-BD BHB ester) read?
**A.** lack of efficacy

**Q.** And the “effect on latency to seizure / CNS-OT (words)” value ([1]; listed as B-hydroxybutyrate ester)?
**A.** no effect on seizure latency

**Q.** What about the “blood BHB level (words)” value [2] of the same molecule?
**A.** elevated blood levels of B-hydroxybutyrate

**Q.** Which results are given for `C[C@H](O)CCO` [BD, R,S-1,3-butanediol, reference compound]?
**A.** blood pH change, mild nonpathological acidosis (FIG. 25) [3]: from 7.45 to 7.35; decrease of blood pH compared to control after about 30 minutes [3]: 0.05; decrease of blood pH compared to control after about one hour [3]: 0.1; effect on latency to seizure / CNS-OT (words) [1]: did not delay CNS-OT; also recorded: did not increase LS; effect on latency to seizure / CNS-OT (words) ([1]; listed as 1,3-BD): lack of efficacy; effect on latency to seizure / CNS-OT (words) ([1]; listed as 1,3-butanediol): no effect on seizure latency; time after feeding to significant βHB elevation [4]: 1 h; ketone bodies elevated, βHB and AcAc [4]: only elevated βHB; time for which blood glucose was significantly lowered [4]: 8 h; increase in mean survival time (VM-M3 metastatic cancer): approximately 16 days; % increase in survival time (VM-M3 metastatic cancer): 51%; blood BHB [2, 6]: > 5 mM; blood AcAc level [2]: only modest elevation in AcAc relative to KE; also recorded: low or undetectable; blood acetone level [2]: low or undetectable; effect on blood glucose [2]: no significant effect on blood glucose levels; blood BHB level (words) [2]: significant increase in BHB; blood BHB level (words) ([2]; listed as 1,3-butanediol): elevated blood levels of B-hydroxybutyrate; tumor growth / bioluminescence (VM-M3/Fluc tumors): profound effect; whole body tumor bioluminescence (ROI), representative animal (VM-M3/Fluc tumors): 1.739×10^6

**Q.** Which “blood pH change, mild nonpathological acidosis (FIG. 25)” value [3] does the source give for `CC(=O)CC(=O)OCCC(C)OC(=O)CC(C)=O` (stereo not drawn) [KE, R,S-1,3-butanediol acetoacetate diester] here?
**A.** from 7.45 to 7.35

**Q.** What about the “decrease of blood pH compared to control after about 30 minutes” value [3] of the same molecule?
**A.** 0.05

**Q.** What about the “decrease of blood pH compared to control after about one hour” value [3] of the same molecule?
**A.** 0.1

**Q.** And the “increase in blood pO2 levels” value ([3]; sustained)?
**A.** approximately 30%

**Q.** And the “blood glucose vs controls” value [5]?
**A.** lower blood glucose

**Q.** And the “blood ketones (βHB) vs controls” value [5]?
**A.** elevated blood βHB

**Q.** What about the “effect on latency to seizure / CNS-OT (words)” value ([1]; listed as 1,3-BD AcAc diester) of the same molecule?
**A.** delays CNS-OT

**Q.** What about the “effect on latency to seizure / CNS-OT (words)” value ([1]; listed as BD-AcAc2) of the same molecule?
**A.** most effective KE against CNS-OT; also recorded: significantly increased the latency time to seizure

**Q.** What about the “increase in latency to seizure (LS)” value [1] of the same molecule?
**A.** 574±115% and 574±116%

**Q.** What about the “increase in latency to seizure (LS)” value ([1]; listed as BD-AcAc2) of the same molecule?
**A.** > 570%

**Q.** What about the “increase in latency to seizure (LS)” value ([1]; listed as dKE) of the same molecule?
**A.** 570%

**Q.** And the “time after feeding to significant βHB elevation” value [4]?
**A.** 4 h

**Q.** What about the “ketone bodies elevated, βHB and AcAc” value [4] of the same molecule?
**A.** elevated both βHB and AcAc

**Q.** What about the “time for which blood glucose was significantly lowered” value [4] of the same molecule?
**A.** 4 h

**Q.** What about the “increase in mean survival time” value (VM-M3 metastatic cancer) of the same molecule?
**A.** approximately 22 days

**Q.** And the “Mean survival” value (VM-M3 metastatic cancer; Example 5, supplemental ketones, control (SD) 31.2)?
**A.** 52.8 days

**Q.** What about the “% increase in survival time” value (VM-M3 metastatic cancer) of the same molecule?
**A.** 69% and 69.2* %

**Q.** And the “total ketones about 30 minutes after gavage” value ([2]; 10 g/kg gavage)?
**A.** > 5 mM

**Q.** What about the “blood AcAc” value [2, 6] of the same molecule?
**A.** > 3 mM

**Q.** And the “blood BHB” value [2, 6]?
**A.** > 3 mM

**Q.** What about the “sustained elevation of total ketones” value ([2]; single oral administration, for over 4 hrs) of the same molecule?
**A.** > 6 mM

**Q.** And the “duration of elevation of blood ketones” value [2]?
**A.** 4 h and > 4 h

**Q.** And the “duration of elevation of blood ketones” value ([2]; listed as BD-AcAc2)?
**A.** over 4 h

**Q.** What about the blood acetone ([2]; within about 60 minutes after single oral administration) of the same molecule?
**A.** ~0.7 mM

**Q.** What about the “blood AcAc level” value [2] of the same molecule?
**A.** increased significantly more; also recorded: significant increase in BHB and AcAc at 30 minutes

**Q.** What about the “blood acetone level” value [2] of the same molecule?
**A.** significantly higher at 60 minutes

**Q.** What about the “effect on blood glucose” value [2] of the same molecule?
**A.** no significant effect on blood glucose levels

**Q.** What about the “effect on blood glucose” value ([2]; listed as BD-AcAc2) of the same molecule?
**A.** does not elevate blood glucose

**Q.** What about the “blood BHB level (words)” value [2] of the same molecule?
**A.** significant increase in BHB and AcAc at 30 minutes

**Q.** And the “tumor growth / bioluminescence” value (VM-M3/Fluc tumors)?
**A.** drastically reduced tumor progression

**Q.** And the “whole body tumor bioluminescence (ROI), representative animal” value (VM-M3/Fluc tumors)?
**A.** 1.536×10^6
